Source: the supplement of paper PMC10307832

Columns and labels:
Test in all cases: relative viability (nuclei count vs DMSO), 5 days (fraction); higher = more cells survive
[1] = compound: CS(=O)(=O)c1ccc(-c2cnc(N)c(C(=O)Nc3ccccc3)n2)cc1 [VE-821] + Cc1nc(Nc2ncc(C(=O)Nc3c(C)cccc3Cl)s2)cc(N2CCN(CCO)CC2)n1 [Dasatinib] (partner 0.075 µM)
Summary of the method: (§1)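 Values are medians from duplicate plates. Each reflects relative viability, defined as the nuclei count of treated wells over that of vehicle wells. Lung cancer cell lines in 1536-well plates were pin-tool dosed one day after seeding with one drug alone or with a fixed anchor-drug dose plus five library-drug doses (not always all listed) in √10 steps, then fixed, stained and imaged at 4× after 5 days.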

[2] = compound: CS(=O)(=O)c1ccc(C(=O)Nc2ccc(Cl)c(-c3ccccn3)c2)c(Cl)c1 [Vismodegib] + CS(=O)(=O)N1CCN(Cc2cc3nc(-c4cccc5[nH]ncc45)nc(N4CCOCC4)c3s2)CC1 [Pictilisib] (partner 1 µM)
Summary of the method: as §1

[3] = compound: N#CC[C@H](C1CCCC1)n1cc(-c2ncnc3[nH]ccc23)cn1 [Ruxolitinib] + CCNC(=O)c1noc(-c2cc(C(C)C)c(O)cc2O)c1-c1ccc(CN2CCOCC2)cc1 [Luminespib] (partner 0.01 µM)
Summary of the method: as §1

[4] = compound: N#CC[C@H](C1CCCC1)n1cc(-c2ncnc3[nH]ccc23)cn1 [Ruxolitinib] + CS(=O)(=O)CCNCc1ccc(-c2ccc3ncnc(Nc4ccc(OCc5cccc(F)c5)c(Cl)c4)c3c2)o1 [Lapatinib] (partner 2 µM)
Summary of the method: as §1

Cell Line	relative viability ([1]; first compound 0.08 µM)	relative viability ([1]; first compound 0.253 µM)	relative viability ([1]; first compound 0.8 µM)	relative viability ([1]; first compound 2.53 µM)	relative viability ([1]; first compound 8 µM)	relative viability ([2]; first compound 0.08 µM)	relative viability ([2]; first compound 0.253 µM)	relative viability ([2]; first compound 0.8 µM)	relative viability ([2]; first compound 2.53 µM)	relative viability ([2]; first compound 8 µM)	relative viability ([3]; first compound 0.253 µM)	relative viability ([3]; first compound 0.8 µM)	relative viability ([3]; first compound 2.53 µM)	relative viability ([3]; first compound 8 µM)	relative viability ([4]; first compound 0.253 µM)	relative viability ([4]; first compound 0.8 µM)	relative viability ([4]; first compound 2.53 µM)	relative viability ([4]; first compound 8 µM)	relative viability ([3]; first compound 0.08 µM)	relative viability ([4]; first compound 0.08 µM)
NCI-H1650	0.312	0.322	0.28	0.255	0.211	0.557	0.587	0.558	0.529	0.639	0.196	0.198	0.214	0.197	0.826	1.05	0.761	0.89	–	–
COR-L 105	0.327	0.313	0.276	0.344	0.255	0.383	0.371	0.445	0.401	0.453	0.93	0.789	0.538	0.511	0.341	0.454	0.461	0.333	0.707	0.394
COR-L23	0.678	0.48	0.545	0.536	0.395	0.803	0.658	0.714	0.675	0.786	0.738	0.676	0.511	0.519	0.9	1.16	0.744	0.823	0.749	1
NCI-H596	0.545	0.653	0.643	0.679	0.615	0.385	0.404	0.391	0.391	0.397	0.889	1.4	1.17	1	1.07	1.22	1.03	1.07	1.03	1.18
NCI-H322M	0.255	0.264	0.248	0.301	0.268	0.544	0.445	0.527	0.484	0.509	0.927	0.918	0.984	1.17	0.68	0.67	0.687	0.873	0.806	0.638
H3255	0.364	0.403	0.321	0.383	0.328	0.483	0.481	0.479	0.471	0.471	0.881	1.07	0.841	0.865	0.236	0.249	0.28	0.226	0.85	–
PC-14	0.231	0.238	0.269	0.229	0.0835	0.492	0.576	0.792	0.541	0.821	0.181	0.175	0.171	0.169	0.243	0.347	0.316	0.313	–	–
NCI-H520	0.232	0.23	0.166	0.298	0.165	0.332	0.254	0.271	0.274	0.309	0.209	0.236	0.215	0.241	0.815	1.04	0.588	0.671	0.211	–
NCI-H2405	0.178	0.211	0.202	0.203	0.205	–	0.441	0.373	0.341	0.531	0.654	0.838	0.481	0.476	1	1.23	0.879	0.643	–	–
PC-3 [JPC-3]	1.06	0.967	1.07	1.02	0.907	0.756	0.736	0.694	0.716	0.726	0.677	0.755	0.579	0.734	0.431	0.46	0.488	0.505	0.663	0.452
NCI-H2347	0.299	0.319	0.344	0.329	0.262	0.563	0.664	0.637	0.609	0.717	0.456	0.41	0.302	0.676	0.964	0.912	0.836	0.734	0.519	0.825
LXF-289	0.235	0.247	0.195	0.223	0.155	0.735	0.783	0.765	0.883	0.802	0.784	0.732	0.674	0.628	0.891	0.861	0.825	0.786	0.608	0.849
NCI-H2023	0.681	0.432	0.458	0.373	0.13	0.268	0.229	0.195	0.238	0.254	0.74	0.674	0.438	0.568	0.693	1.75	0.807	0.728	0.73	0.921
NCI-H1734	0.51	0.455	0.479	0.425	0.33	0.429	0.446	0.429	0.469	0.512	0.197	0.198	0.162	0.185	1	1.21	0.87	0.936	0.167	1.09
SK-LU-1	0.17	0.19	0.163	0.16	0.12	0.503	0.666	0.636	0.583	0.643	0.204	0.255	0.182	0.207	0.991	0.896	0.819	0.693	0.185	0.973
NCI-H3122	0.946	0.726	0.83	0.874	0.694	0.548	0.599	0.553	0.696	0.565	0.108	0.0859	0.0958	0.113	1.04	0.98	0.848	0.934	0.13	0.928
CAL-12T	0.499	0.327	0.372	0.443	0.243	–	0.509	0.263	0.241	0.36	0.771	0.448	0.305	0.335	0.643	0.88	0.697	0.623	0.364	–

Cell Line	relative viability ([1]; first compound 0.08 µM)	relative viability ([1]; first compound 0.253 µM)	relative viability ([1]; first compound 0.8 µM)	relative viability ([1]; first compound 2.53 µM)	relative viability ([1]; first compound 8 µM)	relative viability ([2]; first compound 0.08 µM)	relative viability ([2]; first compound 0.253 µM)	relative viability ([2]; first compound 0.8 µM)	relative viability ([2]; first compound 2.53 µM)	relative viability ([2]; first compound 8 µM)	relative viability ([3]; first compound 0.253 µM)	relative viability ([3]; first compound 0.8 µM)	relative viability ([3]; first compound 2.53 µM)	relative viability ([3]; first compound 8 µM)	relative viability ([4]; first compound 0.253 µM)	relative viability ([4]; first compound 0.8 µM)	relative viability ([4]; first compound 2.53 µM)	relative viability ([4]; first compound 8 µM)	relative viability ([3]; first compound 0.08 µM)	relative viability ([4]; first compound 0.08 µM)
HARA	0.271	0.221	0.315	0.254	0.253	0.472	0.423	0.417	0.396	0.448	0.83	0.897	0.839	0.342	0.631	0.76	0.7	0.675	0.9	0.766
NCI-H1666	0.841	0.78	0.816	0.695	0.578	0.341	0.41	0.42	0.434	0.537	1.1	1.05	1.01	0.972	0.629	0.738	0.844	0.656	1	0.584
NCI-H460	0.58	0.488	0.428	0.261	0.223	0.3	0.385	0.286	0.318	0.313	0.0362	0.0405	0.0294	0.027	1.06	1.21	0.759	1.08	0.0343	0.95
NCI-H1792	0.981	0.89	0.731	0.851	0.727	0.28	0.299	0.23	0.227	0.28	0.447	0.473	0.517	0.434	0.831	0.846	0.845	0.824	0.407	0.936
NCI-H2087	0.871	0.814	0.912	1.2	0.786	0.673	0.702	0.843	0.874	0.732	0.15	0.172	0.233	0.17	1.1	1.16	0.786	1.04	0.158	1.05
NCI-H1355	0.748	0.65	0.609	0.627	0.575	0.391	0.508	0.31	0.432	0.448	0.721	0.772	0.616	0.687	0.898	1.01	0.902	0.863	0.751	0.939
NCI-H838	0.301	0.259	–	0.288	0.24	0.389	0.408	0.415	0.489	0.504	0.233	0.316	0.239	0.221	0.803	0.873	0.446	0.406	0.218	1
SW 1573	0.49	0.573	0.551	0.503	0.218	0.417	0.509	0.59	0.502	0.51	0.214	0.184	0.241	0.21	0.99	1.16	1.07	1.09	0.228	1.05
NCI-H2085	0.214	0.259	0.192	0.226	0.202	0.418	0.447	0.377	0.444	0.417	0.48	0.486	0.403	0.352	0.67	1	0.725	0.806	0.418	0.853
NCI-H1651	0.471	0.46	0.424	0.437	0.323	0.579	0.549	0.523	0.54	0.637	0.902	0.979	0.73	0.726	0.92	0.884	0.767	0.903	0.883	0.958
NCI-H1993	0.563	0.503	0.523	0.524	0.538	0.875	0.947	0.771	0.792	0.822	0.784	0.863	0.508	0.803	0.696	0.977	0.863	0.78	0.758	0.821
NCI-H2126	0.57	0.52	0.515	0.427	0.36	0.519	0.521	0.446	0.493	0.484	0.922	1.13	0.933	0.784	0.776	0.837	0.874	0.878	0.879	0.907
NCI-H1793	0.376	0.371	0.437	0.427	0.386	–	0.413	0.411	0.367	0.325	0.204	0.169	0.156	0.136	0.665	0.905	0.896	0.493	0.221	0.647
LC-2-ad	0.856	0.607	0.679	0.586	0.404	0.49	0.503	0.513	0.643	0.421	1	1	0.693	0.688	0.878	0.868	0.773	0.34	–	0.989
NCI-H647	0.232	0.168	0.152	0.194	0.122	–	0.407	0.389	0.401	0.586	0.228	0.367	0.0851	0.144	1.09	1.19	0.651	1.02	0.18	1.11
LCLC-97TM1	1.1	0.763	0.756	0.838	0.639	–	–	0.125	–	0.158	0.657	0.78	0.626	0.904	0.833	0.852	0.83	1.21	0.617	0.877
